According to patent EP0142057A2, “Thiazoloquinazoline derivatives, their preparation and pharmaceutical compositions containing same” (F. HOFFMANN-LA ROCHE AG, priority 1983, dated 1985):

Assays:
[1] = tested on: antigen-induced bronchoconstriction; test: In vivo screening procedure for SRS-A synthesis inhibitors in guinea pigs; details: 10 mg/kg i.v., 1 minute prior to antigen challenge
Source text: Paralyzed, artificially ventilated, actively sensitized guinea pigs are pretreated with indomethacin (to divert the flow of endogenous arachidonic acid through the lipoxygenase pathway), pyrilamine maleate (to block any bronchoconstriction due to released histamine) and propranol (to enhance the sensitivity of the guinea pig bronchoconstriction to SRS-A) prior to challenging the animal with antigen. Under these conditions the resulting antigen-induced bronchoconstriction has been characterized as being attributable to the synthesis and release of SRS-A in the guinea pig lung. Test compounds are initially studies for their inhibitory properties in this test system by the intravenous route (at 10 mg/kg) given 1 minute prior to antigen challenge.

[2] = molecular target: T1, TXA2 synthase (Homo sapiens, UniProt P24557); test: Thromboxane synthase inhibition, in vitro; type: biochemical; details: at 10^-7M; microsomal fractions from human platelets; read-out: TXA2Synthase Inhibition (% at 10^-7M)
T1 construct: using microsomal fractions from human platelets as enzyme source; from tissue; host or cells: human platelets (microsomal fraction)
T1 sequence (P24557 1-533): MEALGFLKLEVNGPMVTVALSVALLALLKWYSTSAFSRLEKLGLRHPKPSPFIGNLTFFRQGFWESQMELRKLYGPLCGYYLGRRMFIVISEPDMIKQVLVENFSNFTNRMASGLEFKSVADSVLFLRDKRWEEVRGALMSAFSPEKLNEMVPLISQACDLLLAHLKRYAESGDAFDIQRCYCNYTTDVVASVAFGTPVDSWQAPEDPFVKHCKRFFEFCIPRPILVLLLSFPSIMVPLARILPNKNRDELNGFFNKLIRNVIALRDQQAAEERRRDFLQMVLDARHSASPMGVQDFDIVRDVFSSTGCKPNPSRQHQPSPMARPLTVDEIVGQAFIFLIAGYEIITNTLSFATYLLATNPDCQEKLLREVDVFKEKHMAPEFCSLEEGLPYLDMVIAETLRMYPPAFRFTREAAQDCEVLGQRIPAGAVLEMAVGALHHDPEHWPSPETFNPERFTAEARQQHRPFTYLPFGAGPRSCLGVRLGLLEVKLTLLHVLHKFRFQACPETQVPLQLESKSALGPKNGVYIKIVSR
Procedure: TXA2 synthase activity is measured by following the conversion of ^14C-prostaglandin endoperoxide (PGH2) to ^14C-thromboxane A2 (TXA2) using microsomal fractions from human platelets as enzyme source. In the aqueous incubation medium, the TXA2 decomposes rapidly into TXB2. The amount of TXA2 synthase is adjusted so that under the conditions of the assay approximately 80-90% of the substrate, PGH2, is converted to product in control tubes. To prepare ^14C-PGH2, ^14C-AA (50-60 mCi/mmole: Rose Chem.) is incubated with sheep seminal vesicular gland microsomes for 1.5 minutes at 37°C and then the ^14C-PGH2 is extracted with diethylether, purified on columns of Sephadex LH-20 or silicic acid, and stored in acetone at -70°C. Incubations are done as follows. Sufficient ^14C-PGH2 to yield a final substrate concentration of 10 µM (30,000 cpm) is added to the incubation tubes and then the acetone is removed under nitrogen. The tubes are placed in an ice bath and then 215 1 of ice cold phosphate buffered saline, 10 1 of ethanol (control) or of test drug in ethanol, and 25 1 of the microsomal suspension are added with mixing in that order as rapidly as possible. The tubes are incubated at 22°C for 2 minutes, the reaction is stopped and then the radioactive products and the uncoverted PGH2 are extracted and analyzed by thin layer chromatography. […] The amount of ^14C-PGH2 converted to products was used as a measure of TXA2 synthase activity. Inhibitors were tested initially at a final concentration of 100 µM. Results obtained with representative compounds of the present invention in this assay are summarized hereafter in Table I.

Row | SMILES | inhibition of the bronchoconstriction [1] [%] | inhibition at 0.1 µM [2] [%]
1 | CC(C)c1ccc2nc3sc(C(=O)NCCCCc4ccccn4)cn3c(=O)c2c1 [Example 11] | 44 | –
2 | CC(C)c1ccc2nc3sc(C(=O)NCCCCn4ccnc4)cn3c(=O)c2c1 [the 1st table, row 8] | – | 67
